# Test results as given in patent publication EP4122459A1, “COMPOSITION FOR PREVENTING AND TREATING NAIL ALTERATIONS AND DISEASES” (Giuliani S.p.A., priority 2021, dated 2023).
# Tested on: HACAT cells
# Assay: In vitro cell proliferation test (MTT assay) on HACAT cells
# Format: cell-based, human
# Details: 48h, highest concentrations: Cocoa 16µg/mL, Zinc 4µg/mL
# From the text: The MTT assay (3-(4,5-dimethylthiazol-2-yl)-2,5-diphenyltetrazolium bromide) is a colorimetric assay used to evaluate in vitro cell proliferation, as it allows to measure proliferation and cell viability through the evaluation of mitochondrial activity (Mosmann et al., 1983). This method is very useful to measure cell growth following treatment with mitogenic agents, antigenic stimuli, growth factors and for cytotoxicity studies. […] Formazan forms crystals, insoluble in the intracellular environment, to which the membranes are substantially impermeable: the molecule can therefore enter the cell, but the product cannot exit if it has been correctly metabolized, that is if the electron transport chains are still metabolically active. The formazan crystals are subsequently solubilized in dimethyl sulfoxide (DMSO), thus causing the solution to color change from yellow to dark blue-violet. The assay was carried out following the method by Mosmann (1983), with some minor modifications. […] The absorbance of the colored solution was measured using a spectrophotometric reader for microplates (BioTek Instruments Inc., BadFriedrichshall, Germany) at a wavelength of 570 nm (reference wavelength at 630 nm). The data were expressed as a percentage of cell viability compared to control cells (ctr), according to the following formula: % cell viability/ctr = (Abssample/Absctr)*100. […]
substance,measurement,value
Zinc,cytotoxic activity on HACAT cells,significant (p<0.05) cytotoxic activity
